From patent US20220133702A1, “CYSTIC FIBROSIS TRANSMEMBRANE CONDUCTANCE REGULATOR MODULATORS FOR TREATING AUTOSOMAL DOMINANT POLYCYSTIC KIDNEY DISEASE” (The Johns Hopkins University, priority 2020, published 2022)

Key:
[1] = tested on: Pkd1^fl/fl; Pax8^rtTA; TetO-cre mice; assay: Cyst growth and renal function in doxycycline-induced Pkd1 knockout mice; format: in vivo, mouse
Protocol: (FIG. 1A) Representative images of postnatal day (PND) 21 kidney sections from DMSO- and VX-809-treated mice. Significant reductions occurred in (FIG. 1B) cyst index, (FIG. 1C) kidney weight, and (FIG. 1D) kidney-to-body weight ratio. […] Methods: The total kidney area and total cystic area were measured with ImageJ (provided by NIH). Cystic index=100 X (total cystic area/total kidney area) and is expressed as a percentage. Columns represent means±standard error (SEM) for DMSO (vehicle)-treated (n=4-5) and VX-809 mice. *P<0.05; **P<0.01 (for all graphs). Statistical analysis was performed using an unpaired two-tailed Student's t-test;
When treated with doxycycline, these mice express Cre, causing knockout of PC1. […] Kidney weight (FIG. 1C) and kidney-to-body weight ratios (FIG. 1D) were also lower than those of the control mice. There was no difference in overall body weight (FIG. 1E) between the treated and untreated groups. […] The dosage of VX-809 injected was lower than the human pediatric dose, which is 500 mg of Lumacaftor per day; the adult dose is 800 mg/day.
Mouse strain and treatment. Pkd1^fl/fl; Pax8^rtTA; TetO-cre mice on a C57BL/6 background (61) were provided by the Baltimore PKD Center. Mice of both sexes were used in this study. Mice were injected IP with doxycycline (Sigma, #D9891) (4 μg of doxycycline/g body weight) on postnatal day 11 (PND11), PND12, and PND13 to produce very rapid and aggressive cyst growth. On PND21, the mice were euthanized.
(§1) To determine the location of PC2 in the cilia, confocal microscopy experiments using the Pkd1^fl/fl; Pax8^rtTA TetO-cre mouse model were conducted. These mice, when injected intraperitoneally (IP) with doxycycline on postnatal days (PND) 11, 12, and 13, developed multiple large cysts and large polycystic kidneys at approximately 3 weeks of age.

[2] = tested on: HSP27, HSP70 and HSP90 in PN cells; assay: Western blot of heat shock proteins in cells; format: cell-based, mouse; settings: 10 μM, 16 h
Protocol: FIG. 8A, FIG. 8B, FIG. 8C, FIG. 8D, FIG. 8E, FIG. 8F, FIG. 8G, and FIG. 8H show chaperone expression is altered in PH and PN cells by VX-809. […] Western blot showing expression of HSP27, HSP70 and HSP90 in VX-809 treated or control PN cells. […] (FIG. 8E). Western blot of HSP27, HSP70 and HSP90 in PH vs. PN cells. […] Whereas, Hsp70 is higher in PH vs. PN cells. Data were analyzed by non-parametric t test. Experiment was repeated 4-5 times. Cells were grown in 10-cm culture dishes at permissive conditions (33° C.) with y-interferon in culture media. Cells were then transferred to non-permissive conditions at 37° C., y-interferon free culture media and evaluated at full confluence. At day four, cells were treated with VX-809 (10 μM) for 16 h and harvested on fifth day for assay. *P<0.05., **P<0.01, ***P<0.001, ****P<0.0001;
To facilitate their growth in the kidney, cysts have developed an altered network of proteins that most likely serves to protect them from stress . Next, it was determined whether VX-809 would alter the levels of Hsps in pkd−/− mice and in PN cells. […] Hsp 27, 70 and 90 are all elevated in cystic kidneys compared to normal controls. […] There is no change in Hsp40. […] Both sets of data are consistent with an alteration in the heat shock response to cyst growth.

[3] = tested on: PC2 in the primary cilium; assay: Confocal microscopy of PC2 in cilia of kidney sections; format: in vivo, mouse; settings: doxycycline plus VX-809 vs doxycycline plus DMSO
Protocol: as §1
Mice were treated without doxycycline (NoDoxy), with doxycycline plus DMSO (Doxy), or with doxycycline plus VX809 (Doxy VX809), as indicated. PC2 staining is shown in red, acetylated (ac) αtubulin is shown in green, regions of colocalization of PC2 and ac-atubulin are shown in yellow. Scale bar is 10 μm. All pictures were taken with a 63× objective.
FIG. 21 is a graph of the percentage of cells with ciliary staining. Mice were treated without doxycycline (NoDoxy), with doxycycline plus DMSO (Doxy), or with doxycycline plus VX809 (Doxy VX809), as indicated, and kidney cells were analyzed. Pearson's coefficient was measured using at least 10 cells per image. Three animals were analyzed for each maneuver.
In normal mice PC2 is located in the primary cilium.

[4] = tested on: NHE3 in PN cells; assay: NHE3 activity; format: cell-based, mouse; settings: treated PN cells vs PN cells
Protocol: FIG. 15A and FIG. 15B show NHE3 activity in PN and PH cells (FIG. 15A and FIG. 15B) and NHE3 activity in PN cells treated with VX-809.
FIG. 16A, FIG. 16B, and FIG. 16C show NHE activity in PN/PH cells or PN cells treated with VX-809;
The expression and activity of […] were evaluated. Specifically, NHE3 expression was evaluated in PN cells that were treated with VX-809. […] was also studied in PN, PH, and PN cells treated with VX-809. […] Next, NHE3 activity was evaluated in PN/PH cells or PN cells treated with VX-809. NHE3 activity was increased in PN cells treated with VX-809, as compared to PN cells (FIG. 16A). NHE3 activity was higher in control PH cells than in PN cells (FIG. 16B). […] NHE3 activity was increased in both VX-809 treated PN cells and control PH cells, as compared to control PN cells (FIG. 16C).

[5] = 30 mg/kg IP daily PND10 to PND20, vs DMSO-treated mice
[6] = 30 mg/kg IP daily PND10 to PND20, vs control mice
[7] = injected daily PND10 to PND20, vs DMSO-treated mice

SMILES: Cc1ccc(NC(=O)C2(c3ccc4c(c3)OC(F)(F)O4)CC2)nc1-c1cccc(C(=O)O)c1 [VX-809, lumacaftor]
- overall body weight ([1]; 30 mg/kg IP daily PND10 to PND20, treated vs untreated): no difference
- blood urea nitrogen (BUN) [1, 5]: lowered
- creatinine [1, 5]: lowered
- cyst growth (cyst index) [1, 5]: −60.4%
- Kidney weight [1, 6]: lower
- kidney-to-body weight ratios [1, 6]: lower
- cyst growth (in words) [1, 7]: significantly less cyst growth
- renal function [1, 7]: improved renal function
- Hsp27 expression [2]: reduced expression
- Hsp70 expression [2]: reduced expression
- Hsp90 expression [2]: reduced expression
- PC2 in the cilium [3]: restores PC2 to the cilium
- colocalization of PC2 with the cilia marker ac-αtubulin [3]: increases colocalization
- NHE3 activity [4]: significantly increased
